Experimental data published in PubChem BioAssay AID256 (DTP/NCI, 2004).
Values joined by “and” are separate entries in the source; they are usually repeats but may differ in a detail not shown here. Identical values can stand only once. Toxic doses and inconclusive results are not listed. Rule for the calls: active = survival T/C of 150% or more; inactive = T/C below 125% in these data.

Tested on: CD2F1 mice, L1210 leukemia ip, survival T/C
Test: NCI In Vivo Anticancer Drug Screen. Data for tumor model L1210 Leukemia (intraperitoneal) in CD2F1 (CDF1) mice
Conditions: higher = longer survival
How it was run: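 Antitumor effect is scored in animals hosting a serially transplanted tumor. Values compare compound-dosed animals against vehicle-only controls as a simple quotient.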

[1] = endpoint: mean survival time, dose: 100.0 mg/kg/injection, schedule: Q01DX001 (ip), vehicle: Klucel (hydroxypropylcellulose) (HPC)
[2] = endpoint: mean survival time, dose: 200.0 mg/kg/injection, schedule: Q01DX001 (ip), vehicle: Klucel (hydroxypropylcellulose) (HPC)
[3] = endpoint: mean survival time, dose: 400.0 mg/kg/injection, schedule: Q01DX001 (ip), vehicle: Klucel (hydroxypropylcellulose) (HPC)
[4] = endpoint: mean survival time, dose: 100.0 mg/kg/injection, schedule: Q04DX003 (ip), vehicle: saline with Tween-80

Measured: T/C

Cn1c[n+](C)c2ncncc21
inactive: endpoint: mean survival time, dose: 3.8 mg/kg/injection, schedule: Q01DX005 (ip), vehicle: water 102 % of control | endpoint: mean survival time, dose: 7.5 mg/kg/injection, schedule: Q01DX005 (ip), vehicle: water 102 % of control | endpoint: mean survival time, dose: 15.0 mg/kg/injection, schedule: Q01DX005 (ip), vehicle: water 117 % of control | endpoint: mean survival time, dose: 30.0 mg/kg/injection, schedule: Q01DX005 (ip), vehicle: water 98 % of control | endpoint: mean survival time, dose: 60.0 mg/kg/injection, schedule: Q01DX005 (ip), vehicle: water 95 % of control

Nc1nc2ccc(CN(C=O)c3ccc(C(=O)NC(CCC(=O)O)C(=O)O)cc3)cc2c(=O)[nH]1 (stereo unspecified)
inactive: endpoint: mean survival time, dose: 6.25 mg/kg/injection, schedule: Q01DX009 (ip), vehicle: water 94 % of control | endpoint: mean survival time, dose: 12.5 mg/kg/injection, schedule: Q01DX009 (ip), vehicle: water 102 % of control | endpoint: mean survival time, dose: 25.0 mg/kg/injection, schedule: Q01DX009 (ip), vehicle: water 105 % of control | endpoint: mean survival time, dose: 50.0 mg/kg/injection, schedule: Q01DX009 (ip), vehicle: water 107 % of control | endpoint: mean survival time, dose: 100.0 mg/kg/injection, schedule: Q01DX009 (ip), vehicle: water 119 % of control | endpoint: mean survival time, dose: 200.0 mg/kg/injection, schedule: Q01DX009 (ip), vehicle: water 107 % of control | endpoint: mean survival time, dose: 400.0 mg/kg/injection, schedule: Q01DX009 (ip), vehicle: water 100 % of control

O=C1c2ccccc2C(=O)c2c1cn1c2Cc2ccccc2C1
inactive: endpoint: median survival time, dose: 9.0 mg/kg/injection, schedule: Q01DX005 (ip), vehicle: Klucel (hydroxypropylcellulose) (HPC) 106 % of control | endpoint: median survival time, dose: 9.37 mg/kg/injection, schedule: Q01DX005 (ip), vehicle: other 106 % of control and 107 % of control | endpoint: median survival time, dose: 12.5 mg/kg/injection, schedule: Q01DX005 (ip), vehicle: Klucel (hydroxypropylcellulose) (HPC) 110 % of control | endpoint: median survival time, dose: 15.0 mg/kg/injection, schedule: Q01DX005 (ip), vehicle: Klucel (hydroxypropylcellulose) (HPC) 109 % of control | endpoint: median survival time, dose: 18.75 mg/kg/injection, schedule: Q01DX005 (ip), vehicle: other 114 % of control and 103 % of control | endpoint: median survival time, dose: 25.0 mg/kg/injection, schedule: Q01DX005 (ip), vehicle: Klucel (hydroxypropylcellulose) (HPC) 107 % of control | endpoint: median survival time, dose: 37.5 mg/kg/injection, schedule: Q01DX005 (ip), vehicle: other 114 % of control and 111 % of control | endpoint: median survival time, dose: 41.66 mg/kg/injection, schedule: Q01DX005 (ip), vehicle: Klucel (hydroxypropylcellulose) (HPC) 114 % of control | endpoint: median survival time, dose: 50.0 mg/kg/injection, schedule: Q01DX005 (ip), vehicle: Klucel (hydroxypropylcellulose) (HPC) 108 % of control | endpoint: median survival time, dose: 69.44 mg/kg/injection, schedule: Q01DX005 (ip), vehicle: Klucel (hydroxypropylcellulose) (HPC) 106 % of control | endpoint: median survival time, dose: 75.0 mg/kg/injection, schedule: Q01DX005 (ip), vehicle: other 114 % of control and 98 % of control | endpoint: median survival time, dose: 100.0 mg/kg/injection, schedule: Q01DX005 (ip), vehicle: Klucel (hydroxypropylcellulose) (HPC) 122 % of control | endpoint: median survival time, dose: 150.0 mg/kg/injection, schedule: Q01DX005 (ip), vehicle: other 110 % of control | endpoint: median survival time, dose: 200.0 mg/kg/injection, schedule: Q01DX005 (ip), vehicle: Klucel (hydroxypropylcellulose) (HPC) 107 % of control

O=C(O)c1ccccc1C(=O)Nc1nccs1
inactive: endpoint: mean survival time, dose: 50.0 mg/kg/injection, schedule: Q01DX009 (ip), vehicle: Klucel (hydroxypropylcellulose) (HPC) 97 % of control | endpoint: mean survival time, dose: 100.0 mg/kg/injection, schedule: Q01DX009 (ip), vehicle: Klucel (hydroxypropylcellulose) (HPC) 105 % of control | endpoint: mean survival time, dose: 200.0 mg/kg/injection, schedule: Q01DX009 (ip), vehicle: Klucel (hydroxypropylcellulose) (HPC) 101 % of control

CCOC(=O)/C(C#N)=C/NC(N)=O
inactive: endpoint: mean survival time, dose: 50.0 mg/kg/injection, schedule: Q01DX001 (ip), vehicle: Klucel (hydroxypropylcellulose) (HPC) 100 % of control | [1] 91 % of control and 92 % of control | [2] 103 % of control | [3] 88 % of control

O=C1C2C(c3ccccc3)=C(c3ccccc3)C1C1(c3ccccc3)C(c3ccccc3)=CC(=O)C21 (stereo unspecified)
inactive: [1] 89 % of control | [2] 93 % of control | [3] 93 % of control

CCCC(=O)c1cccc([N+](=O)[O-])c1
inactive: endpoint: mean survival time, dose: 100.0 mg/kg/injection, schedule: Q01DX001 (ip), vehicle: other 96 % of control | endpoint: mean survival time, dose: 100.0 mg/kg/injection, schedule: Q04DX002 (ip), vehicle: other 98 % of control | endpoint: mean survival time, dose: 100.0 mg/kg/injection, schedule: Q04DX003 (ip), vehicle: other 103 % of control | endpoint: mean survival time, dose: 200.0 mg/kg/injection, schedule: Q01DX001 (ip), vehicle: other 93 % of control | endpoint: mean survival time, dose: 200.0 mg/kg/injection, schedule: Q04DX002 (ip), vehicle: other 100 % of control | endpoint: mean survival time, dose: 200.0 mg/kg/injection, schedule: Q04DX003 (ip), vehicle: other 100 % of control | endpoint: mean survival time, dose: 400.0 mg/kg/injection, schedule: Q01DX001 (ip), vehicle: other 94 % of control | endpoint: mean survival time, dose: 400.0 mg/kg/injection, schedule: Q04DX002 (ip), vehicle: other 98 % of control | endpoint: mean survival time, dose: 400.0 mg/kg/injection, schedule: Q04DX003 (ip), vehicle: other 101 % of control | endpoint: mean survival time, dose: 800.0 mg/kg/injection, schedule: Q01DX009 (ip), vehicle: other 91 % of control and 94 % of control and 95 % of control

CN(C)Cc1cc(Cl)cc(CN(C)C)c1O
inactive: endpoint: mean survival time, dose: 25.0 mg/kg/injection, schedule: Q04DX003 (ip), vehicle: saline with Tween-80 105 % of control | endpoint: mean survival time, dose: 50.0 mg/kg/injection, schedule: Q04DX003 (ip), vehicle: saline with Tween-80 97 % of control | [4] 101 % of control

O=C(O)c1c(F)c(F)c(-c2c(F)c(F)c(C(=O)O)c(C(=O)O)c2F)c(F)c1C(=O)O
inactive: endpoint: mean survival time, dose: 100.0 mg/kg/injection, schedule: Q01DX001 (ip), vehicle: saline with Tween-80 95 % of control | endpoint: mean survival time, dose: 200.0 mg/kg/injection, schedule: Q01DX001 (ip), vehicle: saline with Tween-80 96 % of control

O=C(/C=C/c1ccccc1)Nc1cccc2ccccc12
inactive: endpoint: mean survival time, dose: 100.0 mg/kg/injection, schedule: Q04DX002 (ip), vehicle: saline with Tween-80 90 % of control | endpoint: mean survival time, dose: 200.0 mg/kg/injection, schedule: Q04DX002 (ip), vehicle: saline with Tween-80 105 % of control | endpoint: mean survival time, dose: 400.0 mg/kg/injection, schedule: Q04DX002 (ip), vehicle: saline with Tween-80 94 % of control

CC1C2CCC(C2)C1N (stereo unspecified)
inactive: endpoint: mean survival time, dose: 50.0 mg/kg/injection, schedule: Q01DX009 (ip), vehicle: saline 99 % of control | endpoint: mean survival time, dose: 100.0 mg/kg/injection, schedule: Q01DX009 (ip), vehicle: saline 99 % of control | endpoint: mean survival time, dose: 200.0 mg/kg/injection, schedule: Q01DX009 (ip), vehicle: saline 99 % of control

Nc1ncnc2c1c1c(=O)[nH]c(=S)[nH]c1n2C1OC(CO)C(O)C1O (stereo unspecified)
inactive: endpoint: mean survival time, dose: 25.0 mg/kg/injection, schedule: Q01DX005 (ip), vehicle: water 94 % of control | endpoint: mean survival time, dose: 50.0 mg/kg/injection, schedule: Q01DX005 (ip), vehicle: water 100 % of control | endpoint: mean survival time, dose: 100.0 mg/kg/injection, schedule: Q01DX005 (ip), vehicle: water 103 % of control | endpoint: mean survival time, dose: 200.0 mg/kg/injection, schedule: Q01DX005 (ip), vehicle: water 105 % of control | endpoint: mean survival time, dose: 400.0 mg/kg/injection, schedule: Q01DX005 (ip), vehicle: water 114 % of control

O=C(COc1ccc(Cl)cc1Cl)Nc1cc[n+](Cc2ccc(S(=O)(=O)F)cc2)cc1
inactive: [4] 98 % of control | endpoint: mean survival time, dose: 200.0 mg/kg/injection, schedule: Q04DX003 (ip), vehicle: saline with Tween-80 98 % of control | endpoint: mean survival time, dose: 400.0 mg/kg/injection, schedule: Q04DX003 (ip), vehicle: saline with Tween-80 95 % of control

BrC1CC(Br)c2c1c1c(c3c2C(Br)CC3Br)C(Br)CC1Br (stereo unspecified)
inactive: endpoint: mean survival time, dose: 12.5 mg/kg/injection, schedule: Q01DX009 (ip), vehicle: saline with Tween-80 100 % of control and 105 % of control | endpoint: mean survival time, dose: 25.0 mg/kg/injection, schedule: Q01DX009 (ip), vehicle: saline with Tween-80 102 % of control and 104 % of control | endpoint: mean survival time, dose: 50.0 mg/kg/injection, schedule: Q01DX009 (ip), vehicle: saline with Tween-80 104 % of control and 105 % of control | endpoint: mean survival time, dose: 100.0 mg/kg/injection, schedule: Q01DX009 (ip), vehicle: saline with Tween-80 97 % of control and 108 % of control | endpoint: mean survival time, dose: 200.0 mg/kg/injection, schedule: Q01DX009 (ip), vehicle: saline with Tween-80 114 % of control and 105 % of control | endpoint: mean survival time, dose: 400.0 mg/kg/injection, schedule: Q01DX009 (ip), vehicle: saline with Tween-80 104 % of control and 105 % of control
